# Experimental data from patent US9572807B2, “Protocols for treatment of major depressive disorder (MDD)” (NEURALSTEM, INC., priority 2014, dated 2017).
# Key:
# Assay type in all cases: in vivo, human
# [1] = tested on: patients with symptomatic MDD; experiment: Clinician Global Impression-Improvement Scale (CGI-I), Phase 1B study; settings: for Cohen's d value, CGI-I (ANCOVA): all test groups (n=18) vs placebo (n=6), Day 7 as baseline
# Experimental: (§1) A double-blind, placebo-controlled, multiple-ascending-dose study employing the compound of formula (1) was performed in patients with symptomatic MDD. Twenty-four subjects were recruited, with their diagnosis and illness severity confirmed through an independent, remote SAFER interview (Targum, S. D., et al., CNS Neurosci. Ther. (2008) 14:2-9) from the Massachusetts General Hospital (MGH) Clinical Trials Network and Institute (CTNI) raters. Each patient underwent a screening for eligibility (Day −37 to Day −6 or −3) and eligible patients were admitted into the unit on Day −5 to complete their wash-out and be reconfirmed for eligibility and for baseline assessments. The patients received daily dosing of formula (1) or placebo for 28 days starting on Day 1 and were followed for safety, pharmacokinetics (PK) and pharmacodynamics (PD) until discharge. At the conclusion of in-house dosing (Day 28), patients remained in the unit for up to 3 additional days, at the psychiatrist's discretion. On Day 35 (±3), Day 42 (±3), Day 49 (±3) and Day 70 (±3) outpatient follow-up visits took place. Patients returned to the unit for extensive follow-up on Day 56 (±3) and Day 84 (±3) (End-of-study).
# (§2) The subjects were randomized into four groups of 6 patients each to receive 40 mg of formula (1) per dose administered orally in gelatin capsules once daily, twice daily or three times daily to provide 40 or 80 or 120 mg daily of formula (1) or placebo for 28 days. Each cohort included at least 3 female subjects. In this example, qEEG was used to characterize pharmacodynamic effects.
# (§3) In this example, the results of the study of Example 1 were evaluated by the efficacy assessments that included the Montgomery-Asberg Depression Rating Scale (MADRS), the Clinician Global Impression-Improvement (CGI-I), the Symptoms of Depression Questionnaire (SDQ) and the Cognitive and Physical Functioning Questionnaire (CPFQ). […] These improvements persisted over time during the follow-up for MADRS, SDQ and CPFQ.
# (§4) Baseline values were adjusted for initial differences and the results for the placebo group (n=6) and the tested groups (n=18) were collapsed. The sizes of the effects were estimated as Cohen's d group mean differences where d=0.20 indicates only a small difference, d=0.50 indicates a medium difference and d=0.80 indicates a large difference. Cohen's d values are described in Cohen, J. (1988) Statistical Power Analysis for the Behavioral Sciences (2nd ed.), Lawrence Erlbaum Associates. D values are used when the scale of a dependent variable is not inherently meaningful, the difference between means are considered in standardized units. That is, effect size is measured in terms of the number of standard deviations by which the means differ. Two commonly used measures are Hedges' g and Cohen's d. Both of these measures consist of the difference between means divided by the standard deviation. They differ only in that Hedges' g uses the version of the standard deviation formula in which division is by N−1, whereas Cohen's d uses the version in which division is by N.
# (§5) Covariance is a measure of how much two variables change together and how strong the relationship is between them (Lenth, R. V., The American Statistician (2001) 55:187-193). Analysis of covariance (ANCOVA) is a general linear model which blends analysis of variance (ANOVA) and regression. ANCOVA evaluates whether population means of a dependent variable (DV) are equal across levels of a categorical independent variable (IV), while statistically controlling for the effects of other continuous variables that are not of primary interest, known as covariates (CV). Therefore, when performing ANCOVA, the DV means are adjusted to what they would be if all groups were equal on the CV. In the CGI-I assay, Day 7 was used as the baseline value; in the remaining assays, Day 0 was used as baseline.
# [2] = tested on: patients with symptomatic MDD; experiment: Cognitive and Physical Functioning Questionnaire (CPFQ), Phase 1B study; settings: for Cohen's d value, CPFQ (ANCOVA): all test groups (n=18) vs placebo (n=6)
# Experimental: as §1, §2, §3, §4, §5
# [3] = tested on: patients with symptomatic MDD; experiment: qEEG pharmacodynamic measurement; settings: pre vs 6 hours post-dose on Day 14 and Day 28; prominent in left posterior temporal and parietal regions; lower HFα with placebo
# Experimental: as §1, with “At the conclusion of in-house dosing (Day 28), patients remained in the unit for up to 3 additional days, at the psychiatrist's discretion. On Day 35 (±3), Day 42 (±3), Day 49 (±3) and Day 70 (±3) outpatient follow-up visits took place. Patients returned to the unit for extensive follow-up on Day 56 (±3) and Day 84 (±3) (End-of-study).” left out
# In addition to safety, pharmacokinetic and the behavioral ratings scales described in Example 2, qEEG measurements were obtained 6 hours post-dose on Days 14 and 28 for 20 minutes at rest. EEGs were recorded using 19-standard International 10/20 System scalp locations plus electromyography (EMG) and eye movement monitoring. Digital EEGs recorded using Cadwell Laboratories instrumentation, were reviewed to identify the presence of physiological and instrumentation prior to analyses. […]
# [4] = Day 14, 1x = 40 mg/day oral (n=6)
# [5] = Day 14, 2x = 80 mg/day oral (n=6)
# [6] = Day 14, 3x = 120 mg/day oral (n=6)
# [7] = Day 14, all three dose groups pooled (n=18)
# [8] = Day 56 (follow-up after 28 days dosing), 1x = 40 mg/day oral
# [9] = Day 56 (follow-up after 28 days dosing), 2x = 80 mg/day oral
# [10] = Day 56 (follow-up after 28 days dosing), 3x = 120 mg/day oral
# [11] = Day 56 (follow-up after 28 days dosing), all three dose groups pooled (n=18)
# [12] = Day 84 (follow-up after 28 days dosing), 1x = 40 mg/day oral
# [13] = Day 84 (follow-up after 28 days dosing), 2x = 80 mg/day oral
# [14] = Day 84 (follow-up after 28 days dosing), 3x = 120 mg/day oral
# [15] = Day 84 (follow-up after 28 days dosing), all three dose groups pooled
smiles,measurement,setting,value
CC(C)CCNc1ncccc1C(=O)N1CCN(Cc2ccccc2)CC1 [formula (1)],"Cohen's d value, CGI-I (ANCOVA)",[1]; 70 days,1.13
same,CGI-I Means,"[1]; Day 7, 1x = 40 mg/day oral (n=6)",3.5
same,CGI-I Means,"[1]; Day 7, 2x = 80 mg/day oral (n=6)",3.8333
same,CGI-I Means,"[1]; Day 7, 3x = 120 mg/day oral (n=6)",3.6667
same,CGI-I Means,"[1]; Day 7, all three dose groups pooled (n=18)",3.6667
same,CGI-I Means,[1]; [4],3
same,CGI-I Means,[1]; [5],3.3333
same,CGI-I Means,[1]; [6],3.1667
same,CGI-I Means,[1]; [7],3.1667
same,CGI-I Means,"[1]; Day 21, 1x = 40 mg/day oral (n=6)",2.8333
same,CGI-I Means,"[1]; Day 21, 2x = 80 mg/day oral (n=6)",3.3333
same,CGI-I Means,"[1]; Day 21, 3x = 120 mg/day oral (n=6)",3.3333
same,CGI-I Means,"[1]; Day 21, all three dose groups pooled (n=18)",3.1667
same,CGI-I value,"[1]; Day 28, 40 mg/day, FIG. 1, placebo subset (n=2) 3.5",approximately 2.5
same,CGI-I value,"[1]; Day 28, 80 mg/day (40 mg two times daily), FIG. 1",3
same,CGI-I value versus controls,"[1]; Day 28, 120 mg/day, FIG. 1",no difference from controls
same,CGI-I Means,"[1]; Day 29, 1x = 40 mg/day oral (n=6)",2.5
same,CGI-I Means,"[1]; Day 29, 2x = 80 mg/day oral (n=6)",2.8333
same,CGI-I Means,"[1]; Day 29, 3x = 120 mg/day oral (n=6)",3.1667
same,CGI-I Means,"[1]; Day 29, all three dose groups pooled (n=18)",2.8333
same,"Cohen's d value, CGI-I (ANCOVA)",[1]; Day 30,0.57
same,CGI-I Means,"[1]; Day 35 (follow-up after 28 days dosing), 1x = 40 mg/day oral",3.8333
same,CGI-I Means,"[1]; Day 35 (follow-up after 28 days dosing), 2x = 80 mg/day oral",2.8333
same,CGI-I Means,"[1]; Day 35 (follow-up after 28 days dosing), 3x = 120 mg/day oral",3
same,CGI-I Means,"[1]; Day 35 (follow-up after 28 days dosing), all three dose groups pooled (n=18)",3.2222
same,CGI-I Means,"[1]; Day 42 (follow-up after 28 days dosing), 1x = 40 mg/day oral",3.8333
same,CGI-I Means,"[1]; Day 42 (follow-up after 28 days dosing), 2x = 80 mg/day oral",3
same,CGI-I Means,"[1]; Day 42 (follow-up after 28 days dosing), 3x = 120 mg/day oral",3
same,CGI-I Means,"[1]; Day 42 (follow-up after 28 days dosing), all three dose groups pooled (n=18)",3.2778
same,CGI-I Means,"[1]; Day 49 (follow-up after 28 days dosing), 1x = 40 mg/day oral",3.5
same,CGI-I Means,"[1]; Day 49 (follow-up after 28 days dosing), 2x = 80 mg/day oral",3.3333
same,CGI-I Means,"[1]; Day 49 (follow-up after 28 days dosing), 3x = 120 mg/day oral",2.8333
same,CGI-I Means,"[1]; Day 49 (follow-up after 28 days dosing), all three dose groups pooled (n=18)",3.2222
same,CGI-I Means,[1]; [8],3
same,CGI-I Means,[1]; [9],3
same,CGI-I Means,[1]; [10],2.1667
same,CGI-I Means,[1]; [11],2.7222
same,CGI-I Means,"[1]; Day 70 (follow-up after 28 days dosing), 1x = 40 mg/day oral",3.6667
same,CGI-I Means,"[1]; Day 70 (follow-up after 28 days dosing), 2x = 80 mg/day oral",3.5
same,CGI-I Means,"[1]; Day 70 (follow-up after 28 days dosing), 3x = 120 mg/day oral",3.3333
same,CGI-I Means,"[1]; Day 70 (follow-up after 28 days dosing), all three dose groups pooled (n=18)",3.5
same,CGI-I Means,[1]; [12],3.3333
same,CGI-I Means,[1]; [13],2.6667
same,CGI-I Means,[1]; [14],2
same,CGI-I Means,[1]; [15],2.7059
same,CPFQ value,"[2]; 80 mg/day, FIG. 4, controls (n=2) 4.6",2.6
same,"Cohen's d value, CPFQ (ANCOVA)",[2]; 30 days,0.94
same,CPFQ Means,[2]; [4],3.3095
same,CPFQ Means,[2]; [5],3.2143
same,CPFQ Means,[2]; [6],3
same,CPFQ Means,[2]; [7],3.1746
same,CPFQ Means,"[2]; Day 28, 1x = 40 mg/day oral (n=6)",2.7857
same,CPFQ Means,"[2]; Day 28, 2x = 80 mg/day oral (n=6)",2.6905
same,CPFQ Means,"[2]; Day 28, 3x = 120 mg/day oral (n=6)",2.6667
same,CPFQ Means,"[2]; Day 28, all three dose groups pooled (n=18)",2.7143
same,CPFQ Means,[2]; [8],2.9048
same,CPFQ Means,[2]; [9],2.3571
same,CPFQ Means,[2]; [10],2.5714
same,CPFQ Means,[2]; [11],2.6111
same,CPFQ Means,[2]; [12],2.8571
same,CPFQ Means,[2]; [13],2.4286
same,CPFQ Means,[2]; [14],2.3714
same,CPFQ Means,[2]; [15],2.563
same,"Cohen's d value, CPFQ (ANCOVA)",[2]; Day 85,1.20
same,CPFQ Means,"[2]; Day −5 (baseline before dosing), 1x = 40 mg/day group",4.0238
same,CPFQ Means,"[2]; Day −5 (baseline before dosing), 2x = 80 mg/day group",3.4762
same,CPFQ Means,"[2]; Day −5 (baseline before dosing), 3x = 120 mg/day group",3.7143
same,CPFQ Means,"[2]; Day −5 (baseline before dosing), all three dose groups pooled (n=18)",3.7381
same,"qEEG high frequency α (HFα), amplitude and coherence measures",[3],increased HFα
